Experimental data reported in ChEMBL document CHEMBL3785049, “Fragment-based discovery of inhibitor scaffolds targeting the metallo-β-lactamases NDM-1 and VIM-2” (Bioorg Med Chem Lett, 2016).

Key:
[1] = target: T1, Metallo-beta-lactamase type 2 (Klebsiella pneumoniae, UniProt C7C422); experiment: Binding affinity to His-tagged Klebsiella pneumoniae NDM-1 expressed in Escherichia coli BL21-AI cells by surface plasmon resonance assay
[2] = target: Metallo-beta-lactamase type 2 (Klebsiella pneumoniae) (UniProt C7C422); experiment: Ratio of IC50 for inhibition of His-tagged Klebsiella pneumoniae NDM-1 expressed in Escherichia coli BL21-AI cells using imipinem as substrate to Kd for Binding affinity to His-tagged Klebsiella pneumoniae NDM-1 expressed in Escherichia coli BL21-AI cells by surface plasmon resonance assay
[3] = target: Metallo-beta-lactamase type 2 (Klebsiella pneumoniae) (UniProt C7C422); experiment: Inhibition of His-tagged Klebsiella pneumoniae NDM-1 expressed in Escherichia coli BL21-AI cells at 500 uM using imipinem as substrate
[4] = target: T1, Metallo-beta-lactamase type 2; experiment: Inhibition of His-tagged Klebsiella pneumoniae NDM-1 expressed in Escherichia coli BL21-AI cells using imipinem as substrate
[5] = target: T1, Metallo-beta-lactamase type 2; experiment: Competitive inhibition of His-tagged Klebsiella pneumoniae NDM-1 expressed in Escherichia coli BL21-AI cells using imipinem as substrate

Chain of Metallo-beta-lactamase type 2 (Klebsiella pneumoniae) (C7C422 whole entry): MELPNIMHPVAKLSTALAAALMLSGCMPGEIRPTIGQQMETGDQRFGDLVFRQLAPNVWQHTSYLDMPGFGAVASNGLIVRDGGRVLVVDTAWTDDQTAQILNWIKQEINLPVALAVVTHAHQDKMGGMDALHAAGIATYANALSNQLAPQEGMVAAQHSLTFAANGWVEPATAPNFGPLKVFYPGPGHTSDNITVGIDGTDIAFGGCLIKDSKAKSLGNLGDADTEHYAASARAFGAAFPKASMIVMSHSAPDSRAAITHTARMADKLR
T1 sequence (C7C422 whole entry): as above

| Kd [1] | Ratio [2] | inhibition [3] | IC50 ([4]; read-out: IC50) | IC50 ([4]; read-out: pIC50 (converted)) | Ki [5] | SMILES |
| --- | --- | --- | --- | --- | --- | --- |
| 806 µM | 1.5 | > 20% | 1950 µM | – | – | O=C(O)CCCc1c[nH]c2ccccc12 |
| 2100 µM | 1.5 | > 20% | 3110 µM | – | – | CCCc1ccc(C(=O)CCC(=O)O)cc1 |

Further lines, the compound ahead of its results:

| SMILES | Kd [1] | Ratio [2] | inhibition [3] | IC50 ([4]; read-out: IC50) | IC50 ([4]; read-out: pIC50 (converted)) | Ki [5] |
| --- | --- | --- | --- | --- | --- | --- |
| O=C(O)CSc1ccnc2cc(Cl)ccc12 | 804 µM | 1.5 | > 20% | 1240 µM | 1070 µM | – |
| C[C@@H](O)[C@H]1C(=O)N2C(C(=O)O)=C(S[C@@H]3CN[C@H](C(=O)N(C)C)C3)[C@H](C)[C@H]12 [MEROPENEM] | 11 µM | – | – | – | – | – |
| N#Cc1coc2ccccc2c1=O | 181 µM | 1.5 | > 20% | 480 µM | – | 186 µM |
